How the values were obtained:
[1] = biological target: T1, human recombinant serotonin (5-Hydroxytryptamine) 5-HT5A receptor (Homo sapiens, UniProt P47898); test: Serotonin 5-HT5A radioligand binding ([3H]LSD); settings: compound at 0.1 μM; read-out: Percentage inhibition of ligand binding, Serotonin (0.1 μM) 5-HT5A
T1 construct: expressed in transfected cells; host or cells: CHO-K1
Method: To evaluate in radioligand binding assays the activity of compounds of the invention, human recombinant serotonin (5-Hydroxytryptamine) 5-HT5A receptor expressed in Chinese hamster ovary (CHO) K1 cells (Rees, S. et al, FEBS Lett. 355:242, 1994) in a modified Tris-HCl buffer (50 mM Tris-HCl, pH 7.4, 10 mM MgCl2, 0.5 mM EDTA) was used. Compounds of the invention were incubated with 1.7 nM [^3H]Lysergic acid diethylamide (LSD) for 60 min at 37° C. Non-specific binding was estimated in the presence of 100 μM Serotonin (5-HT). Receptor proteins were filtered and washed, the filters were counted to determine [^3H]LSD specifically bound. Compounds were screened at 1 μM or lower, using 1% DMSO as vehicle. Biochemical assay results are presented as the percent inhibition of specific binding in Table 4.

[2] = biological target: T2, human recombinant serotonin (5-Hydroxytryptamine) 5-HT2C receptor (Homo sapiens, UniProt P28335); test: Serotonin 5-HT2C radioligand binding ([3H]Mesulergine); settings: compound at 0.1 μM; read-out: Percentage inhibition of ligand binding, Serotonin (0.1 μM) 5-HT2C
T2 construct: expressed in transfected cells; host or cells: CHO-K1
T2 sequence (P28335 33-458): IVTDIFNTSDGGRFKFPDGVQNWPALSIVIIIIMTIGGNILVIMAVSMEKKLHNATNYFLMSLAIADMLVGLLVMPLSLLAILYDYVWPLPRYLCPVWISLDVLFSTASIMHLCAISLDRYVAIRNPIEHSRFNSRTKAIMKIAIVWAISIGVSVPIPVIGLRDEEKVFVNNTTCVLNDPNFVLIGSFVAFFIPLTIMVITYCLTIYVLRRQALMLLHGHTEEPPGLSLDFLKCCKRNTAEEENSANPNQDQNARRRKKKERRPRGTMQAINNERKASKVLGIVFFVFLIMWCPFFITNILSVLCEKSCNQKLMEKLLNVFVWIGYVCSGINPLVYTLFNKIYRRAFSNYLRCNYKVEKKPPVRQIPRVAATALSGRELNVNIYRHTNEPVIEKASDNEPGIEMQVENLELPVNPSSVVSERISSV
Method: To evaluate in radioligand binding assays the activity of compounds of the invention, human recombinant serotonin (5-Hydroxytryptamine) 5-HT2C receptor expressed in Chinese hamster ovary (CHO) K1 cells (Wolf, W. et al, J. Neurochem. 69:1449, 1997) in a modified Tris-HCl buffer (50 mM Tris-HCl, pH 7.4, 0.1% Ascorbic Acid, 10 μM Pargyline) was used. Compounds of the invention were incubated with 1 nM [^3H]Mesulergine for 60 min at 25° C. Non-specific binding was estimated in the presence of 1 μM Mianserin. Receptor proteins were filtered and washed, the filters were then counted to determine [^3H]Mesulergine specifically bound. Compounds were screened at 1 μM or lower, using 1% DMSO as vehicle. Biochemical assay results are presented as the percent inhibition of specific binding in Table 4.

[3] = biological target: T3, human recombinant serotonin (5-Hydroxytryptamine) 5-HT2A receptor (Homo sapiens, UniProt P28223); test: Serotonin 5-HT2A radioligand binding ([3H]Ketanserin); settings: compound at 0.1 μM; read-out: Percentage inhibition of ligand binding, Serotonin (0.1 μM) 5-HT2A
T3 construct: expressed in transfected cells; host or cells: CHO-K1
Method: To evaluate in radioligand binding assays the activity of compounds of the invention, human recombinant serotonin (5-Hydroxytryptamine) 5-HT2A receptor expressed in Chinese hamster ovary (CHO) K1 cells (Bonhaus, D. et al, Br. J. Pharmacol. 115:622, 1995; Saucier, C. et al, J. Neurochem. 68:1998, 1997) in a 50 mM Tris-HCl buffer, pH 7.4, was used. Compounds of the invention were incubated with 0.5 nM [^3H]Ketanserin for 60 min at 25° C. Non-specific binding was estimated in the presence of 1 μM Mianserin. Receptor proteins were filtered and washed, the filters were then counted to determine [^3H]Ketanserin specifically bound. Compounds were screened at 1 μM or lower, using 1% DMSO as vehicle. Biochemical assay results are presented as the percent inhibition of specific binding in Table 4.

[4] = biological target: T4, human recombinant histamine H1 receptor (Homo sapiens, UniProt P35367); test: Histamine H1 radioligand binding ([3H]Pyrilamine); settings: compound at 0.1 μM; 1.2 nM [3H]Pyrilamine; read-out: Binding data (Percentage inhibition) Histamine H1 (0.1 μM)
T4 construct: expressed in transfected cells; host or cells: CHO-K1
Method: To evaluate in radioligand binding assays the activity of compounds of the invention, human recombinant histamine H1 receptor expressed in Chinese hamster ovary (CHO) K1 cells (De Backer, M. et al, Biochem. Biophys. Res. Comm. 197(3):1601, 1993) in a modified Tris-HCl buffer (50 mM Tris-HCl, pH 7.4, 2 mM MgCl2, 100 mM NaCl, 250 mM Sucrose) was used. Compounds of the invention were incubated with 1.2 nM [^3H]Pyrilamine for 180 min at 25° C. Non-specific binding was estimated in the presence of 1 μM Pyrilamine. Receptor proteins were filtered and washed, the filters were then counted to determine [^3H]Pyrilamine specifically bound. Compounds were screened at 1 μM or lower, using 1% DMSO as vehicle. Biochemical assay results are presented as the percent inhibition of specific binding in Table 2.

[5] = biological target: T5, human recombinant serotonin (5-Hydroxytryptamine) 5-HT6 receptor (Homo sapiens, UniProt P50406); test: Serotonin 5-HT6 radioligand binding ([3H]LSD); settings: compound at 0.1 μM; read-out: Percentage inhibition of ligand binding, Serotonin (0.1 μM) 5-HT6
T5 construct: expressed in transfected cells; host or cells: HeLa
Method: To evaluate in radioligand binding assays the activity of compounds of the invention, human recombinant serotonin (5-Hydroxytryptamine) 5-HT6 receptor expressed in human HeLa cells (Monsma, F. Jr. et al, Mol. Pharmacol. 43:320, 1993) in a modified Tris-HCl buffer (50 mM Tris-HCl, pH 7.4, 150 mM NaCl, 2 mM Ascorbic Acid, 0.001% BSA) was used. Compounds of the invention were incubated with 1.5 nM [3H]Lysergic acid diethylamide (LSD) for 120 min at 37° C. Non-specific binding was estimated in the presence of 5 μM Serotonin (5-HT). Receptor proteins were filtered and washed, the filters were then counted to determine [3H]LSD specifically bound. Compounds were screened at 1 μM or lower, using 1% DMSO as vehicle. Biochemical assay results are presented as the percent inhibition of specific binding in Table 4.

T1 sequence (P47898 whole entry): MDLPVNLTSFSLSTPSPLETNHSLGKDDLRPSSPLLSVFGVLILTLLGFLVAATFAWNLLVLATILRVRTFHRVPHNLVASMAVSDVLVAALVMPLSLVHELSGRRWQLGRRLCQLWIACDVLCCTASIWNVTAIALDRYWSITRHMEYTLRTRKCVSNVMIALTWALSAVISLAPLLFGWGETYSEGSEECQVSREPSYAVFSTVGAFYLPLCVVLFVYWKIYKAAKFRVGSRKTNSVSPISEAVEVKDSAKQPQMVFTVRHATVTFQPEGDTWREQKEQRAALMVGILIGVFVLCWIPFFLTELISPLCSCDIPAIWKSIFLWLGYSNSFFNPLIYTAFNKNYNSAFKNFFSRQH
T4 sequence (P35367 whole entry): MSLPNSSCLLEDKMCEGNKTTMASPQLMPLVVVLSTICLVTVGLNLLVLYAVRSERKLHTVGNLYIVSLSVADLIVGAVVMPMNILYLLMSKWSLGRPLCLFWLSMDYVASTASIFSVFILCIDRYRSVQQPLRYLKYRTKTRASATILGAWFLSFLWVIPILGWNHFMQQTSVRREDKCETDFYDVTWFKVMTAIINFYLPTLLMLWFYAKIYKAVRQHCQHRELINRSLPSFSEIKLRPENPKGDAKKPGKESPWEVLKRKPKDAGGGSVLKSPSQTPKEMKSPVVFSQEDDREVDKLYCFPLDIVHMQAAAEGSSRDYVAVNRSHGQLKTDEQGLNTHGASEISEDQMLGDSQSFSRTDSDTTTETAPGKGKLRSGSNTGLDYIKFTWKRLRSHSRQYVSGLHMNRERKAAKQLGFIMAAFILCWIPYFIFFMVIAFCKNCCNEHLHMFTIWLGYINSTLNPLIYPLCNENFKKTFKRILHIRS
T5 sequence (P50406 whole entry): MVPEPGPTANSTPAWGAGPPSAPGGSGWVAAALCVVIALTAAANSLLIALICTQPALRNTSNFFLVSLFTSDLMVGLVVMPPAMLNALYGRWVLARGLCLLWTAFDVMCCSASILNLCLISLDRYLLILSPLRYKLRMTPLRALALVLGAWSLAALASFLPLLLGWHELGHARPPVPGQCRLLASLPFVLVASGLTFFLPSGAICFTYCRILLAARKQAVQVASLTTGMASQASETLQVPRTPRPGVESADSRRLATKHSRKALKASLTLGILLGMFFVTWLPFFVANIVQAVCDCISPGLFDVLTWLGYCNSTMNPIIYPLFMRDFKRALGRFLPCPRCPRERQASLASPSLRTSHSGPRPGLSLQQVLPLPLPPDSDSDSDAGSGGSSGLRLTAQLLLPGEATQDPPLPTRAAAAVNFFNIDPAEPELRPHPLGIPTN
T3 sequence (P28223 whole entry): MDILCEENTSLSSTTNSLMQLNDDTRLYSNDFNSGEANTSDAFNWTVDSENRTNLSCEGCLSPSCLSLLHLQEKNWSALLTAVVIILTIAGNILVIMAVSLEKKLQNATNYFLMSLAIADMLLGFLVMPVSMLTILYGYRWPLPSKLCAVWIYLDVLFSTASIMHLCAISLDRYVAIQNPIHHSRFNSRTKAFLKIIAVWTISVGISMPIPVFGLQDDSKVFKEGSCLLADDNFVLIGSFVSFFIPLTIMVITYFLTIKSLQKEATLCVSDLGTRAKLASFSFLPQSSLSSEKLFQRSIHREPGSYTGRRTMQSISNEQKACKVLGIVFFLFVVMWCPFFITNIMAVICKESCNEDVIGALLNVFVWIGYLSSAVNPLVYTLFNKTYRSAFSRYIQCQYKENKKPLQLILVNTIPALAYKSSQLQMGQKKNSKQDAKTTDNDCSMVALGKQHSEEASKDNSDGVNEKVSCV

SMILES	inhibition at 0.1 µM [1] [%]	inhibition at 0.1 µM [2] [%]	inhibition at 0.1 µM [3] [%]	inhibition at 0.1 µM [4] [%]	inhibition at 0.1 µM [5] [%]
Cc1cc(C#Cc2ccc(C)nc2)c2c(c1)c1c(n2C)CCN(C)C1 [Compound 12, 2,3,4,5-tetrahydro-2,5,8-trimethyl-6-(2-(6-methylpyridin-3-yl)ethynyl)-1H-pyrido[4,3-b]indole]	-21	3	23	-14	-3
Cc1cc(-c2ccc(F)cc2)c2c(c1)c1c(n2C)CCN(C)C1 [Compound 7]	-4	36	6	6	10
Cc1cc(C#Cc2cccs2)c2[nH]c3c(c2c1)CN(C)CC3 [Compound 8]	-14	4	27	-3	15
Cc1cc(/C=C/c2ccc(C)nc2)c2c(c1)c1c(n2C)CCN(C)C1 [Compound 14]	-7	1	-7	25	10
C#Cc1cc(C)cc2c3c(n(C)c12)CCN(C)C3 [Compound 10, 6-Ethynyl-2,3,4,5-tetrahydro-2,5,8-trimethyl-1H-pyrido[4,3-b]indole]	1	55	37	5	18
Cc1cc(-c2ccncc2)c2c(c1)c1c(n2C)CCN(C)C1 [Compound 9]	6	9	5	0	-2
Cc1cc(CCc2ccc(C)nc2)c2c(c1)c1c(n2C)CCN(C)C1 [Compound 13]	15	-11	13	28	2
Cc1cc(C#Cc2ccncc2)c2c(c1)c1c(n2C)CCN(C)C1 [Compound 17]	15	19	24	39	5
Cc1cc(C#Cc2nccs2)c2[nH]c3c(c2c1)CN(C)CC3 [Compound 16]	-2	20	21	9	14
C/C(=C\c1cc(C)cc2c3c(n(C)c12)CCN(C)C3)c1ccncc1 [Compound 11]	-19	-11	13	-3	-6
C/C(=C\c1cc(C)cc2c3c(n(C)c12)CCN(C)C3)c1ccc(C)nc1 [Compound 15]	11	28	1	2	11
Cc1ccc(C#Cc2cc(Cl)cc3c4c(n(C)c23)CCN(C)C4)cn1 [Compound 18]	17	27	80	12	6
